ChEMBL document CHEMBL3727361, “Nitrogen bicyclic compounds as inhibitors for Scyl1 and Grk5” (2014)
Active and inactive are the calls of the source. The rule behind the calls is not given here.

Legend:
[1] = Effect on insulin release in mouse BetaTC6 cells assessed as ratio of insulin release incubated for 2 hrs in presence of low glucose media by ELISA relative to DMSO; format: cell-based; details: beta-tc6, 2 h
[2] = molecular target: T1, N-terminal kinase-like protein (Mus musculus) (UniProt Q9EQC5); experiment: Inhibition of Scyl1 in mouse BetaTC6 cells assessed as reduction in increase in insulin release at 5 uM incubated for 2 hrs by ELISA; format: cell-based; details: Beta-TC6
T1 sequence (whole entry): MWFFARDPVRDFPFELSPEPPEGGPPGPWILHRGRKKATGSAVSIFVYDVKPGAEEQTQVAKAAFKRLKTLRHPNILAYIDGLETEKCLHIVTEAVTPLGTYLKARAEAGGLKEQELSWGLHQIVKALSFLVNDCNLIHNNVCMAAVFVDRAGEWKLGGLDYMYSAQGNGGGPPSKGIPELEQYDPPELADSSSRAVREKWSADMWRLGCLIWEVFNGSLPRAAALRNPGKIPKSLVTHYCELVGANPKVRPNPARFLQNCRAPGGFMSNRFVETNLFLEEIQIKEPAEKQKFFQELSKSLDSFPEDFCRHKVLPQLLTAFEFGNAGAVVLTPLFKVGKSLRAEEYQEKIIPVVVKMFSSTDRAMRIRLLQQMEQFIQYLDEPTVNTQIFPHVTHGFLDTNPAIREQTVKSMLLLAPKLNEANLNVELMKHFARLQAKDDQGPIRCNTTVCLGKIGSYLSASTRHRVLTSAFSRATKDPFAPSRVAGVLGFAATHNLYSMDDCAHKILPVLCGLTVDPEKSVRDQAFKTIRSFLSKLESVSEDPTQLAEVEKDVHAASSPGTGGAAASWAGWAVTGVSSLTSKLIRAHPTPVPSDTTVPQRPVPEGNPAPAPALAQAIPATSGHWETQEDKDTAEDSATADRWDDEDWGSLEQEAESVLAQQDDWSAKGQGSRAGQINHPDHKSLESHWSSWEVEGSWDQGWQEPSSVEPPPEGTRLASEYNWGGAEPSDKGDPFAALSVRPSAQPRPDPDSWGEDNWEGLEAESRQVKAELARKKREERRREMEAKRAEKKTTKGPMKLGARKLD

Beta-TC6 [3] = experiment: Increase in insulin release in mouse BetaTC6 cells assessed as relative insulin release activity at 10 uM incubated for 2 to 4 hrs by FRET based HTRF assay relative to sunitinib; format: functional
C2C12 [4] = experiment: Cytotoxic activity against mouse C2C12 cells assessed as inhibition of cell proliferation of at 2 uM incubated for 72 hrs by MTT assay; format: cell-based; details: c2c12, 72 h
C2C12 [5] = experiment: Cytotoxic activity against mouse C2C12 cells assessed as inhibition of cell proliferation of at 2 to 10 uM incubated for 72 hrs by MTT assay; format: cell-based; details: c2c12, 72 h
[6] = Cytotoxic activity against mouse BetaTC6 cells assessed as inhibition of cell proliferation at 2 to 10 uM incubated for 72 hrs by MTT assay; format: cell-based; details: beta-tc6, 72 h
[7] = molecular target: T1, N-terminal kinase-like protein (Mus musculus); experiment: Inhibition of Scyl1 in mouse BetaTC6 cells assessed as increase in insulin release at 2 to 10 uM incubated for 2 hrs in presence of high glucose media by ELISA; format: cell-based; details: Beta-TC6
[8] = Cytotoxic activity against mouse BetaTC6 cells assessed as inhibition of cell proliferation at 10 uM incubated for 72 hrs by MTT assay; format: cell-based; details: beta-tc6, 72 h
Beta-TC6 [9] = experiment: Effect on insulin release in mouse BetaTC6 cells incubated for 2 hrs by ELISA; format: functional, cell-based
[10] = molecular target: T1, N-terminal kinase-like protein (Mus musculus); experiment: Inhibition of GRK5 in mouse C2C12 cells assessed as increase in 2-NBDG uptake at 5 uM after 1 hr relative to DMSO; format: cell-based
Beta-TC6 [11] = experiment: Increase in insulin release in mouse BetaTC6 cells at 5 uM incubated for 2 hrs by ELISA; format: functional
[12] = molecular target: RAC-alpha serine/threonine-protein kinase (Mus musculus) (UniProt P31750); experiment: Inhibition of Akt1 in mouse BetaTC6 cells assessed as increase in insulin release at 10 uM incubated for 2 hrs by ELISA; format: cell-based; set-up: scale not given: the % may be the effect or the level left; details: Beta-TC6
RAC-alpha serine/threonine-protein kinase (Mus musculus), sequence (P31750 whole entry): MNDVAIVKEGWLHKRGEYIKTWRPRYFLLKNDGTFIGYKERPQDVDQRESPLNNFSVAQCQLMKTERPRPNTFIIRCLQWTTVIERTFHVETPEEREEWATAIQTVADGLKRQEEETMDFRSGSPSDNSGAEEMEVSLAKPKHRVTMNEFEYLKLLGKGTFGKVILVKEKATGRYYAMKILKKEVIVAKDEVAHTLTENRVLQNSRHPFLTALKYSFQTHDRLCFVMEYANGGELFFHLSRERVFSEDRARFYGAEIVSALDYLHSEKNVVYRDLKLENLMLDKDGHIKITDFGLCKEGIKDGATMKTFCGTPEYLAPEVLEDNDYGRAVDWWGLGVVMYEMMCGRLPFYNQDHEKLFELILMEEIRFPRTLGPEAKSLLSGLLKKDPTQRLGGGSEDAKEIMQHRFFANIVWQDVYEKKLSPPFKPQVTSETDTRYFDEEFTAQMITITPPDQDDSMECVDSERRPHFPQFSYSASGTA

inhibition [7]	SMILES	Activity [1]	Activity (Beta-TC6 [3])	Activity (C2C12 [4])	Activity (C2C12 [5])	Activity [8]	further results
Dose-dependent effect	COc1cc(-c2ccc3ncc(-c4cccnc4)n3n2)cc(OC)c1OC	Non-toxic	20%	Non-toxic	Toxic		inhibition [2]: 100%; Activity [6]: Non-toxic
Dose-dependent effect	COc1ccc(-c2ccc3ncc(-c4ccncc4)n3n2)cc1OC	Non-toxic	20%	Non-toxic	Toxic	Toxic	
	CCCCNC(=O)NS(=O)(=O)c1ccc(C)cc1						Activity (Beta-TC6 [9]): inactive
	COc1ccc(Cl)cc1C(=O)NCCc1ccc(S(=O)(=O)NC(=O)NC2CCCCC2)cc1						Activity (Beta-TC6 [9]): inactive
	COc1ncc(-c2cc(NC(C)=O)c3ncc(-c4cccc(C(=O)N(C)C)c4)n3c2)c(OC)n1						fold change (FC) [10]: 1.73; Activity (Beta-TC6 [11]): -16.75%
Dose-dependent effect	COc1cc(-c2cnc3ccc(-c4cc(OC)c(OC)c(OC)c4)nn23)ccc1O	Non-toxic	20%		Toxic		
	CCCCCCCCCCCCCCCCCCOC[C@H](COP(=O)(O)O[C@H]1[C@H](O)[C@@H](O)[C@H](O)C[C@H]1OC)OC						Activity [12]: 0.75%
Dose-dependent effect	CN(C)CCNC(=O)c1cccc(-c2cnc3ccc(-c4cccc(NS(C)(=O)=O)c4)nn23)c1	Non-toxic	20%		Toxic	Toxic	
Dose-dependent effect	CC(=O)Nc1cccc(-c2ccc3ncc(-c4cccc(NC(C)=O)c4)n3n2)c1	Non-toxic	20%	Non-toxic	Toxic		Activity [6]: Non-toxic
	CCN(CC)CCNC(=O)c1c(C)[nH]c(/C=C2\C(=O)Nc3ccc(F)cc32)c1C [SUNITINIB]					Toxic	
